From ChEMBL document CHEMBL3507680, “University of Dundee, Gates Library screen for HepG2 cell viability”

Experiment: Human HepG2 cell viability assay in 384 well format
Format: toxicity, cell-based
Set-up: dose 125 nL, time 70.5 hour; concentration not given beside the values
Conditions: HepG2 cells, read-out: Inhibition
`Cc1ccoc1C(=O)NC1CCN(Cc2cccc3ccccc23)CC1` gave a cytotoxicity at 70.5 h of 1.33%. `COc1ccccc1C(=O)N1CCC(Nc2ccc(C)nn2)CC1` gave a cytotoxicity at 70.5 h of -8.98%. With `CCc1noc(CN(Cc2cccs2)CC2CCCO2)n1` (configuration not stated) the cytotoxicity at 70.5 h was -1.65%. In the case of `CC(=O)NCC1CCN(C(=O)NCCc2ccc(Cl)s2)CC1`, the cytotoxicity at 70.5 h is reported as -6.89%. With `CC(=O)N1CCCN(C(=O)NCc2ccc(Cl)s2)CC1` the cytotoxicity at 70.5 h was -3.07%. In the case of `CC(C)c1ccc(S(=O)(=O)N2CSCC2C(=O)NCC(F)(F)F)cc1` (configuration not stated), the cytotoxicity at 70.5 h is reported as -7.38%. `Cc1cn2nc(N3CCN(Cc4cc(C)on4)CC3)sc2n1` gave a cytotoxicity at 70.5 h of -2.77%. In the case of `CCn1ccnc1CN1CCOC(Cn2cccn2)C1` (configuration not stated), the cytotoxicity at 70.5 h is reported as 22.6%. With `COc1ccc(C(=O)N2CCC(Nc3cccnn3)CC2)c(F)c1` the cytotoxicity at 70.5 h was -3.14%. With `COc1ccc(C(=O)N2CCC(Nc3ccc(C)nn3)CC2)cc1` the cytotoxicity at 70.5 h was 0.696%. Work on `c1cnnc(N2CCCC2CNc2cnc3ccccc3n2)c1` (configuration not stated) yielded a cytotoxicity at 70.5 h of -2.61%. Molecule `Cc1ccc(NS(=O)(=O)c2cc3c(c(C(=O)O)c2)OCCO3)cc1C` has a cytotoxicity at 70.5 h of -5.96%. `O=C(O)c1cc(S(=O)(=O)Nc2cc(Cl)ccc2F)cc2c1OCCO2` showed a cytotoxicity at 70.5 h of 23%. `O=C(NCCc1ccc(I)s1)N1CCC1` gave a cytotoxicity at 70.5 h of -2.1%. `CC(C)NC(=O)CS(=O)(=O)Cc1cc(Cl)c2c(c1)OCCO2` gave a cytotoxicity at 70.5 h of -1.77%. In the case of `CCn1cc(NC(=O)NCC(C)O)cn1` (configuration not stated), the cytotoxicity at 70.5 h is reported as -1.8%. `CCc1nc(CN(CC(N)=O)C(C)C)cs1` gave a cytotoxicity at 70.5 h of 18.1%. `CCn1cc(NC(=O)NCC(O)c2ccccc2)cn1` (configuration not stated) gave a cytotoxicity at 70.5 h of 2.91%. `CCOc1ccnc(N2CCN(C(=O)c3cn[nH]c3CC)CC2)n1` showed a cytotoxicity at 70.5 h of -3.19%. With `CCNc1cc2c(nn1)CCN(C(=O)CC1CCCCC1)C2` the cytotoxicity at 70.5 h was -4.16%. `CCCOc1ccc(CNC2CCCc3c2cnn3CC)cc1OC` (configuration not stated) showed a cytotoxicity at 70.5 h of 29.4%. With `CS(=O)(=O)c1ccc(CNC(=O)N2CCC(c3ccccc3)CC2)cc1` the cytotoxicity at 70.5 h was -2.27%. With `O=C(c1ccc(O)cc1)N1CCN(C(=O)c2ccc3c(c2)COC3)CC1` the cytotoxicity at 70.5 h was 2.44%. With `CC(O)CN1CCN(C(=O)c2ccc3c(c2)COC3)CC1` (configuration not stated) the cytotoxicity at 70.5 h was 22.6%. In the case of `COc1ccc(Cl)cc1C(=O)N1CCCC(n2nc(C)nc2C)C1` (configuration not stated), the cytotoxicity at 70.5 h is reported as 27.7%. Work on `CC(C)c1n[nH]c(C2CN(Cc3nnc(C4CC4)o3)CCO2)n1` (configuration not stated) yielded a cytotoxicity at 70.5 h of 24.8%. Work on `Cc1nn(C)c(C)c1C1CCCN1Cc1cccc(C(N)=O)c1` (configuration not stated) yielded a cytotoxicity at 70.5 h of 4%. Molecule `COc1cccc(CN2CCCC2c2c(C)nn(C)c2C)c1` (configuration not stated) has a cytotoxicity at 70.5 h of 3.04%. With `c1ccc(-c2nc(CN3CCCC3Cn3cncn3)cs2)cc1` (configuration not stated) the cytotoxicity at 70.5 h was 14.3%. `CCS(=O)(=O)CCN1CCCC1c1noc(C2CC2)n1` (configuration not stated) gave a cytotoxicity at 70.5 h of 27%. `CCc1nc(CN(C(C)=O)C2CCN(Cc3cnc(C)cn3)C2)no1` (configuration not stated) gave a cytotoxicity at 70.5 h of 23.6%. With `COc1cccc(OCC(=O)NS(=O)(=O)c2ccc(C)s2)c1` the cytotoxicity at 70.5 h was 14%. `CC(NC(=O)NCCCc1n[nH]c(N)c1C#N)c1cccs1` (configuration not stated) gave a cytotoxicity at 70.5 h of 44.5%. `CCOc1ncccc1NC(=O)NCC(O)c1ccccc1OC` (configuration not stated) showed a cytotoxicity at 70.5 h of 11.2%. Molecule `CC(NC(=O)NCCCc1n[nH]c(N)c1C#N)c1ccccc1` (configuration not stated) has a cytotoxicity at 70.5 h of 26.6%. For `COc1cccc(-n2c(C)cc(C(=O)NS(C)(=O)=O)c2C)c1`, the cytotoxicity at 70.5 h was -1.93%. For `COCCOc1ccc(NC(=O)C2CC(=O)N(C)C2)cn1` (configuration not stated), the cytotoxicity at 70.5 h was -4.68%. With `COCCOc1ccc(NC(=O)C2CCCN(C(N)=O)C2)cn1` (configuration not stated) the cytotoxicity at 70.5 h was 4.12%. Work on `Cc1ccc(-c2nnc(CN3CCOC(Cn4cccn4)C3)o2)cc1` (configuration not stated) yielded a cytotoxicity at 70.5 h of -7.48%. In the case of `Cc1cnc(NC(=O)c2ccc(-n3ncc(C#N)c3N)cc2)s1`, the cytotoxicity at 70.5 h is reported as 8.89%. `COc1ccc(C2=CCN(C(=O)CN(C)CC(N)=O)CC2)cc1` gave a cytotoxicity at 70.5 h of -2.43%. `Cc1cccc(C2(NC(=O)CCN3C(=O)CCC3=O)CCCC2)c1` gave a cytotoxicity at 70.5 h of -6.61%. In the case of `CCN1CCN(C2CCN(Cc3c(C)noc3C)CC2)C1=O`, the cytotoxicity at 70.5 h is reported as 25.5%. For `COC(=O)N1CCCC(C(=O)NCc2cc3cccc(OC)c3o2)C1` (configuration not stated), the cytotoxicity at 70.5 h was -6.62%. `CCCC(Nc1c(C#N)c(=O)n(C)c(=O)n1C)c1ccc(F)cc1F` (configuration not stated) gave a cytotoxicity at 70.5 h of 9.48%. Molecule `CC(=O)c1cccc(OCC(=O)NS(=O)(=O)c2ccc(C)s2)c1` has a cytotoxicity at 70.5 h of 28.6%. `CCOC(=O)C1CCN(Cc2csc(C(C)(C)C)n2)CC1` showed a cytotoxicity at 70.5 h of -2.2%. In the case of `COc1cccc2cc(CNC(C)(C)C(=O)N3CCC(O)CC3)oc12`, the cytotoxicity at 70.5 h is reported as 14.1%. With `CCc1n[nH]c(C2CN(C(=O)c3cnns3)CCO2)n1` (configuration not stated) the cytotoxicity at 70.5 h was 2.09%. `c1ccc(-c2nnc(CNCCn3cccn3)o2)cc1` gave a cytotoxicity at 70.5 h of -1.94%. With `Cc1nc(C)n(CC2CCCN2CCCOc2ccc(F)cc2)n1` (configuration not stated) the cytotoxicity at 70.5 h was 6.79%. With `CNS(=O)(=O)CCCN1CCCC1c1cc(C)on1` (configuration not stated) the cytotoxicity at 70.5 h was 1.72%. Molecule `O=C(CCc1cccnc1)N1CCCC(n2cncn2)C1` (configuration not stated) has a cytotoxicity at 70.5 h of -2.85%. For `Cc1cnn(CC2CN(c3ncnc4ccccc34)CCO2)c1` (configuration not stated), the cytotoxicity at 70.5 h was 31.7%. `COCc1ccccc1C(=O)N1CCCC(n2nc(C)cc2C)C1` (configuration not stated) gave a cytotoxicity at 70.5 h of 24.9%. Work on `O=C(CCCc1ncc(-c2ccccc2)o1)N1CCN(CCO)CC1` yielded a cytotoxicity at 70.5 h of -7.53%. `Cc1cc(C2CCCN(CCCS(=O)(=O)c3ccccc3)C2)n[nH]1` (configuration not stated) gave a cytotoxicity at 70.5 h of -14%. With `O=C(c1cccc2[nH]ncc12)N1CCCC1c1noc(C2CC2)n1` (configuration not stated) the cytotoxicity at 70.5 h was -18.3%. Molecule `Cc1nccn1CC1CCCN1S(=O)(=O)Cc1ccccc1F` (configuration not stated) has a cytotoxicity at 70.5 h of -7.26%. Molecule `Cc1nn(C)c(Cl)c1C(=O)NCC(c1ccsc1)N(C)C` (configuration not stated) has a cytotoxicity at 70.5 h of -21.3%. In the case of `CCC(CC)C(CNC(=O)Nc1ccc(C)cc1)N1CCOCC1` (configuration not stated), the cytotoxicity at 70.5 h is reported as -15.7%. Work on `Cc1ccc(CNC(=O)NCc2csc(C)n2)cn1` yielded a cytotoxicity at 70.5 h of -21.2%. In the case of `Cc1ccc(CNC(=O)CCSCc2csc(C)n2)cn1`, the cytotoxicity at 70.5 h is reported as -11.2%. In the case of `N#Cc1ccccc1N1CCCN(C(=O)CCn2cccn2)CC1`, the cytotoxicity at 70.5 h is reported as -23%. `Cc1cc(CN2CCC(c3ccnn3CCO)CC2)no1` gave a cytotoxicity at 70.5 h of -15.5%. `Cc1noc2ncc(C(=O)N3CCCC3c3ccncc3)cc12` (configuration not stated) showed a cytotoxicity at 70.5 h of 33.6%. In the case of `N#Cc1ccccc1N1CCCN(C(=O)CCc2nccs2)CC1`, the cytotoxicity at 70.5 h is reported as -21.6%. In the case of `Cn1cc(CCNC(=O)NCc2nnc3n2CCC3)cn1`, the cytotoxicity at 70.5 h is reported as -22.4%. With `NC(=O)C1CCCN(C(=O)c2cnc3c(cnn3C3CCCC3)c2)C1` (configuration not stated) the cytotoxicity at 70.5 h was 33%. `OC(CN1CCN(Cc2nnc(C3CC3)o2)CC1)c1ccccc1` (configuration not stated) gave a cytotoxicity at 70.5 h of -20.3%. In the case of `Cc1cnn(CC2CCCN2CCc2nc3ccccc3c(=O)[nH]2)c1` (configuration not stated), the cytotoxicity at 70.5 h is reported as 0.164%. With `Cc1cnn(CC2CCCN2C(=O)Cc2n[nH]c3ccccc23)c1` (configuration not stated) the cytotoxicity at 70.5 h was -14.5%. In the case of `Cc1cccc(NC2CCN(C(=O)Nc3cc(C)on3)CC2)n1`, the cytotoxicity at 70.5 h is reported as -14.3%. Work on `CC(O)CN1CCN(C(=O)c2cccn2Cc2ccncc2)CC1` (configuration not stated) yielded a cytotoxicity at 70.5 h of -16.4%. Molecule `CCC(CC)C(O)CNC(=O)Nc1cc(C)nn1C` (configuration not stated) has a cytotoxicity at 70.5 h of -17.8%. `Cc1cnn(CC2CCCCN2Cc2nc(N)c3ccccc3n2)c1` (configuration not stated) showed a cytotoxicity at 70.5 h of -6.17%. Molecule `Cc1cnn(CC2CCCN2C(=O)c2cccc(-n3cnnn3)c2)c1` (configuration not stated) has a cytotoxicity at 70.5 h of -28.5%. In the case of `Cc1nccn1CC1CCCN1S(=O)(=O)Cc1ccccc1` (configuration not stated), the cytotoxicity at 70.5 h is reported as -22.1%. `Fc1cccc(-n2ccc(CN3CCCCC3Cn3cncn3)n2)c1` (configuration not stated) gave a cytotoxicity at 70.5 h of -13.3%. Molecule `CN(Cc1nc(C2CC2)no1)C1CCCN(c2cccnn2)C1` (configuration not stated) has a cytotoxicity at 70.5 h of -19.7%. For `Cc1cnn(CC2CCCN2C(=O)c2cccc(CC#N)c2)c1` (configuration not stated), the cytotoxicity at 70.5 h was -22%. In the case of `Cc1c(C)c2c(c(C)c1O)CC[C@](C)(C(=O)O)O2` [(R)-TROLOX], the cytotoxicity at 70.5 h is reported as -0.808%.
